# Target: Aldo-keto reductase family 1 member B1 (Homo sapiens, UniProt P15121)
# Assay: SPR Assay
# Details: pH 8.5
# Procedure: The anti-His antibody (His Capture Kit, GE Healthcare) was immobilized on sensor chip CM5 (GE Healthcare), in a Biacore T200 or Biacore S200 instrument, to ∼10000 resonance units (RU) using a standard amine coupling procedure (Amine Coupling Kit, GE Healthcare). His-tagged aldose reductase (ALR2), at a concentration of 100 μg/mL, was captured on the anti-His antibody using dual injection consisting of a 3 min injection of protein followed by a 100 s activation with a mixture (1:1) of 0.2 M N-ethyl-N-(dimethylamino)propylcarbodiimide (EDC) and 50 mM N-hydroxysuccinimide (NHS), and final blocking with an injection of 1.0 Methanolamine (pH 8.5) for 100 s. […] For the interaction analysis, the compound concentrations ranged from 3 to 10000 nM with a 5-fold dilution step, using a single-cycle kinetic approach with three or five concentrations or injections per cycle.
row,Kd,Structure (SMILES)
1,14 nM,O=C(O)COc1cc(Cl)ccc1C(=O)NCc1cccc([N+](=O)[O-])c1 [2-(5-chloro-2-{[(3-nitrophenyl)methyl]carbamoyl}phenoxy)acetic acid]
2,16 nM,"NC(=O)[C@@H]1C[C@]2(NC(=O)NC2=O)c2cc(F)ccc2O1 [(2S,4S)-6-fluoro-2,5-dioxo-2,3-dihydrospiro[chromene-4,4-imidazolidine]-2-carboxamide]"
3,23 nM,"O=C(O)COc1cc(F)ccc1C(=O)Nc1cccc([N+](=O)[O-])c1 [ALR2 inhibitor, 8]"
4,15 nM,"O=C(O)COc1ccc(-c2ccccc2)cc1C(=O)NCc1cccc([N+](=O)[O-])c1 [ALR2 inhibitor, 11]"

# — BindingDB's records for doi:10.1021/acschembio.7b00062 (Philipps-Universität Marburg, 2017)
